IC50 data for 37 molecules are collected here from patent publication US20230382894A1, “CCR4 ANTAGONISTS” (CHEMOCENTRYX, INC., priority 2022, published 2023).

Assay [1] has as its target T1, CCR4 (Homo sapiens, UniProt P51679).
T1 construct: CEM Cells Endogenous Express CCR4; endogenous in cells; host or cells: CEM cells
T1 sequence (P51679 1-360): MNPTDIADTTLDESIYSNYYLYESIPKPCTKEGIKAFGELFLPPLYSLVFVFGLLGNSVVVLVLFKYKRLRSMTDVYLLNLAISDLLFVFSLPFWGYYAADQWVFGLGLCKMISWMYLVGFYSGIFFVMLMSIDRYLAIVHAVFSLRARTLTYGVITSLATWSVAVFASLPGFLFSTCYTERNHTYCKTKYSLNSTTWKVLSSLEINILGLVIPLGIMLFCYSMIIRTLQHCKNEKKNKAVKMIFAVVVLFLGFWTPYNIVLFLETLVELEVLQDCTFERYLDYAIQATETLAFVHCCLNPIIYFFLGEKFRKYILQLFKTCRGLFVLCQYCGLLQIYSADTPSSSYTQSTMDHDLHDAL
The assay is described as follows: CEM cell chemotaxis (migration) assay to CCL22 (MDC) in HBSS buffer with 0.1% BSA. It is filed as cell-based. The note with it: CEM cells in HBSS with 0.1% BSA; recombinant human CCL22 0.1 nM; 37° C. 60 minutes. From the text:
CEM Cells Endogenous Express CCR4
A chemotaxis assay can be used to determine the efficacy of potential receptor antagonists at blocking the migration mediated through chemokine receptors, such as CCR4. This assay is routinely performed using the ChemoTX® microchamber system with a 5 μm pore-sized polycarbonate membrane.
HBSS: CEM Cells are collected by centrifugation at 400×g at room temperature, then suspended at 5 million/ml in Hanks' Balanced Salt Solution (HBSS) buffer with 0.1% BSA. The compound being tested is serially diluted from a maximum final concentration of 10 μM (or an equivalent volume of its solvent (DMSO)) and is then added to the cell/buffer mixture. Separately, recombinant human CCL22 (MDC) at its EC50 concentration (0.1 nM) is placed in the lower wells of the ChemoTX® plate. The 5-μm (pore size) polycarbonate membrane was placed onto the plate, and 20 μL of the cell/compound mixture is transferred onto each well of the membrane. The plates are incubated at 37° C. for 60 minutes, after which the polycarbonate membranes are removed and 5 μl of the DNA-intercalating dye CyQUANT (Invitrogen, Carlsbad, CA) is added to the lower wells. The amount of fluorescence, corresponding to the number of migrated cells, is measured using a Spectrafluor Plus plate reader (TECAN, San Jose, CA).

The target of assay [2] is T1, CCR4. The assay is described as follows: CEM cell chemotaxis (migration) assay to CCL22 (MDC) in 100% Fetal Bovine Serum (FBS). The note with it: CEM cells in 100% FBS with 1% HEPEs; recombinant human CCL22 0.1 nM; 37° C. 60 minutes. It is filed as cell-based. In short, it runs like this: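 Endogenously CCR4-expressing CEM cells in 100% FBS with 1% HEPES were preincubated with serially diluted compound (top final 10 μM) and allowed to migrate through 5 μm polycarbonate membranes toward 0.1 nM human CCL22 (EC50) for 60 min at 37 °C. Migrated cells were quantified by CyQUANT fluorescence.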

One may read the IC50 as the concentration that inhibits the measured activity by half. For the molecule `C[C@@H](Nc1nc(N2CCN(C(=O)[C@H]3CCCN3CCO)CC2)ncc1Cl)c1ccc(Cl)cc1Cl` [Example 1.046], the IC50 on CCR4 [1] and on CCR4 [2] was less than 100 nM throughout.

For `C[C@@H](Nc1nc(N2CCC(C3CCCN(CCO)C3)CC2)ncc1Cl)c1ccc(Cl)cc1Cl` (some centres unmarked) [Example 1.047], the IC50 at CCR4 [1] and at CCR4 [2] was less than 100 nM in each case.

In the case of `C[C@@H](Nc1nc(N2CCN(C(=O)[C@H]3CCCN3CCC(=O)O)CC2)ncc1Cl)c1ccc(Cl)cc1Cl` [Example 1.048], the IC50 on CCR4 [1] and on CCR4 [2] was less than 100 nM in each case.

In the case of `Cc1nc(N2CCN(C(=O)[C@H]3CCCN3)CC2)nc(N[C@H](C)c2ccc(Cl)cc2Cl)c1Cl` [Example 1.049], the IC50 on CCR4 [1] and on CCR4 [2] was less than 100 nM each time.

In the case of `C[C@@H](Nc1nc(N2CCN(C(=O)[C@@H]3CCCN3C(=O)OC(C)(C)C)CC2)ncc1Cl)c1ccc(Cl)cc1Cl` [Example 1.050], the figures for the IC50 at CCR4 [1] and on CCR4 [2] were 100 to 1000 nM and more than 1000 nM, respectively.

As for `C[C@@H](Nc1nc(N2CCN(C(=O)[C@H]3CCCN3C(=O)OC(C)(C)C)CC2)ncc1Cl)c1ccc(Cl)cc1Cl` [Example 1.051], the half-maximal inhibitory concentration (IC50) on CCR4 [1] and at CCR4 [2] was 100 to 1000 nM in each case.

Consider `C[C@@H](Nc1nc(N2CCN(C(=O)[C@@H]3CCCN3)CC2)ncc1Cl)c1ccc(Cl)cc1Cl` [Example 1.052], for which the IC50 at CCR4 [1] and on CCR4 [2] was less than 100 nM each time.

With `C[C@@H](Nc1nc(N2CCN(C(=O)[C@H]3CCCN3)CC2)ncc1Cl)c1ccc(Cl)cc1Cl` [Example 1.053], the IC50 at CCR4 [1] and at CCR4 [2] was less than 100 nM in each case.

Turning to `C[C@@H](Nc1nc(N2CCN(C3CCCN(CCC(=O)O)C3)CC2)ncc1Cl)c1ccc(Cl)cc1Cl` (some centres unmarked) [Example 1.054], the concentration for half-maximal inhibition (IC50) at CCR4 [1] and at CCR4 [2] was less than 100 nM throughout.

As for `C[C@@H](Nc1nc(N2CCN(C3CCCNC3)CC2)ncc1Cl)c1ccc(Cl)cc1Cl` (some centres unmarked) [Example 1.055], the half-inhibitory concentration (IC50) on CCR4 [1] and at CCR4 [2] was less than 100 nM each time.

For the molecule `C[C@@H](Nc1nc(C2=CCN([C@H]3CCCN(CCC(N)=O)C3)CC2)ncc1Cl)c1ccc(Cl)cc1Cl` [Example 1.056], the IC50 on CCR4 [1] and at CCR4 [2] was less than 100 nM each time.

As to `C[C@@H](Nc1nc(C2=CCN([C@H]3CCCN(CCC(=O)O)C3)CC2)ncc1Cl)c1ccc(Cl)cc1Cl` [Example 1.057], the IC50 on CCR4 [1] and at CCR4 [2] was less than 100 nM throughout.

`C[C@@H](Nc1nc(C2=CCN([C@H]3CCCN(CCO)C3)CC2)ncc1Cl)c1ccc(Cl)cc1Cl` [Example 1.058]: the concentration for half-maximal inhibition (IC50) at CCR4 [1] and at CCR4 [2] was less than 100 nM in each case.

Regarding `C[C@@H](Nc1nc(N2CCN(C(=O)N(C)C3CCNC3)CC2)ncc1Cl)c1ccc(Cl)cc1Cl` (some centres unmarked) [Example 1.059], the IC50 on CCR4 [1] and on CCR4 [2] was less than 100 nM each time.

As to `C[C@@H](Nc1nc(N2CCC(NC(=O)[C@H]3CCN(C)C3)CC2)ncc1Cl)c1ccc(Cl)cc1Cl` [Example 1.060], the IC50 at CCR4 [1] and at CCR4 [2] was less than 100 nM each time.

Regarding `C[C@@H](Nc1nc(N2CCC(NC(=O)[C@H]3CCNC3)CC2)ncc1Cl)c1ccc(Cl)cc1Cl` [Example 1.061], the IC50 on CCR4 [1] and on CCR4 [2] was less than 100 nM in each case.

In the case of `CC(C)N(C(=O)C1CCNC1)C1CCN(c2ncc(Cl)c(N[C@H](C)c3ccc(Cl)cc3Cl)n2)CC1` (some centres unmarked) [Example 1.062], the IC50 on CCR4 [1] and at CCR4 [2] was more than 1000 nM each time.

On to `C[C@@H](Nc1nc(N2CCN(C3CCCN(CC(=O)O)C3)CC2)ncc1Cl)c1ccc(Cl)cc1Cl` (some centres unmarked) [Example 1.063], for which the half-maximal inhibitory concentration (IC50) at CCR4 [1] and on CCR4 [2] was less than 100 nM throughout.

`C[C@@H](Nc1nc(N2CCC(N(CCO)C(=O)[C@H]3CCCN3)CC2)ncc1Cl)c1ccc(Cl)cc1Cl` [Example 1.064]: the IC50 on CCR4 [1] and at CCR4 [2] was less than 100 nM in each case.

`CC(Nc1nc(N2CCC(C(=O)N(C)C3CCNC3)CC2)ncc1Cl)c1ccc(Cl)cc1Cl` (centres unmarked) [Example 1.065]: the IC50 at CCR4 [1] and on CCR4 [2] was less than 100 nM in each case.

In the case of `C[C@@H](Nc1nc(N2CCN(C(=O)[C@@H]3CCN(C)C3)CC2)ncc1Cl)c1ccc(Cl)cc1Cl` [Example 1.066], the half-maximal inhibitory concentration (IC50) at CCR4 [1] and at CCR4 [2] was less than 100 nM in each case.

`C[C@@H](Nc1nc(N2CCC(NC(=O)[C@@H]3CCN(C)C3)CC2)ncc1Cl)c1ccc(Cl)cc1Cl` [Example 1.067]: the half-maximal inhibitory concentration (IC50) was less than 100 nM on CCR4 [1] and 100 to 1000 nM on CCR4 [2].

With `CNC1CCN(C(=O)C2CCN(c3ncc(Cl)c(N[C@H](C)c4ccc(Cl)cc4Cl)n3)CC2)C1` (some centres unmarked) [Example 1.068], the half-maximal inhibitory concentration (IC50) on CCR4 [1] and at CCR4 [2] was less than 100 nM in each case.

As for `C[C@@H](Nc1nc(N2CCN(C(=O)[C@H]3C[C@@H](O)CN3)CC2)ncc1Cl)c1ccc(Cl)cc1Cl` [Example 1.069], the IC50 on CCR4 [1] and on CCR4 [2] was less than 100 nM each time.

For the molecule `C[C@@H](Nc1nc(N2CCN(C(=O)[C@@H]3CCNC3)CC2)ncc1Cl)c1ccc(Cl)cc1Cl` [Example 1.070], the 50% inhibitory concentration (IC50) at CCR4 [1] and on CCR4 [2] was less than 100 nM throughout.

Turning to `Cc1cnc(N2CCN(C(=O)[C@H]3CCCN3)CC2)nc1N[C@H](C)c1ccc(Cl)cc1Cl` [Example 1.071], the IC50 on CCR4 [1] and at CCR4 [2] was less than 100 nM throughout.

With `C[C@@H](Nc1nc(N2CCN(C(=O)N(C)CCN(C)C)CC2)ncc1Cl)c1ccc(Cl)cc1Cl` [Example 1.072], the 50% inhibitory concentration (IC50) at CCR4 [1] and at CCR4 [2] was less than 100 nM each time.

On to `C[C@@H](Nc1nc(N2CCN(C(=O)[C@H]3CCC(=O)N3)CC2)ncc1Cl)c1cccc(Cl)c1` [Example 1.075], for which the IC50 at CCR4 [1] is more than 1000 nM; at CCR4 [2] it was 100 to 1000 nM.

Turning to `CC(Nc1nc(N2CCN(C(=O)[C@H]3CCC(=O)N3)CC2)ncc1Cl)c1c(F)cc(Cl)cc1F` (some centres unmarked) [Example 1.076], the IC50 at CCR4 [1] and at CCR4 [2] was less than 100 nM in each case.

Take `C[C@@H](Nc1nc(C2CCN(C3CCCN(CCC(=O)O)C3)CC2)ncc1Cl)c1ccc(Cl)cc1Cl` (some centres unmarked) [Example 1.077]: the IC50 at CCR4 [1] and on CCR4 [2] was less than 100 nM in each case.

Turning to `C[C@@H]1CN(C(=O)[C@H]2CCC(=O)N2)CCN1c1ncc(Cl)c(N[C@H](C)c2ccc(Cl)cc2Cl)n1` [Example 1.078], the IC50 on CCR4 [1] and at CCR4 [2] was less than 100 nM each time.

`C[C@@H](Nc1nc(N2CCN(C(=O)[C@H]3CCS(=O)(=O)N3)CC2)ncc1Cl)c1ccc(Cl)cc1Cl` [Example 1.079]: the IC50 on CCR4 [1] and on CCR4 [2] was less than 100 nM throughout.

Turning to `C[C@@H](Nc1nc(N2CCN(C(=O)[C@H]3CCCN3)CC2)nc(N)c1Cl)c1ccc(Cl)cc1Cl` [Example 1.080], the IC50 at CCR4 [1] and on CCR4 [2] was less than 100 nM in each case.

For the molecule `C[C@@H](Nc1nc(N2CCN(C(=O)[C@H]3CCC(=O)N3)C[C@@H]2C)ncc1Cl)c1ccc(Cl)cc1Cl` [Example 1.081], the half-maximal inhibitory concentration (IC50) at CCR4 [1] and on CCR4 [2] was less than 100 nM in each case.

For `CC(Nc1nc(N2CCN(C(=O)[C@H]3CCC(=O)N3)CC2)ncc1Cl)c1cc(F)c(Cl)cc1Cl` (some centres unmarked) [Example 1.082], the IC50 at CCR4 [1] and at CCR4 [2] was less than 100 nM throughout.

Take `C[C@@H](Nc1nc(N2CCN(C(=O)[C@H]3CCC(=O)N3)CC2)ncc1Cl)c1cc(Cl)cc(Cl)c1` [Example 1.083]: the IC50 on CCR4 [1] and on CCR4 [2] was more than 1000 nM in each case.

With `C[C@H](Nc1nc(N2CCN(C(=O)[C@H]3CCC(=O)N3)CC2)ncc1Cl)c1cc(F)c(Cl)cc1Cl` [Example 1.110], the concentration for half-maximal inhibition (IC50) on CCR4 [1] and on CCR4 [2] was more than 1000 nM throughout.
